Data taken from patent US7300946B2, “N-(substituted arylmethyl)-4-(disubstituted methyl) piperidines and pyridines” (Bayer CropScience AG, priority 2002, dated 2007).

Test system: tobacco budworm (Heliothis virescens [Fabricius])
Experiment: surface-treated diet test against the tobacco budworm
Assay type: in vivo
Conditions: tobacco budworm second instar larvae, 0.25 millimoles of candidate insecticide on the surface of the diet, five-day exposure; for Percent Mortality: compared to total number of insects infested; for Percent Growth Inhibition: inhibition of insect weight relative to untreated controls
How it was run: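 Wheat germ artificial diet surface-treated with 40 µL of 50 mM DMSO stock diluted 1:7 in 1:1 water/acetone (0.25 millimolar on diet), or sub-multiples for rate tests. One second-instar larva per well, 25° C, 60% RH, 5 days; percent weight inhibition vs DMSO controls and percent mortality.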

Row | SMILES | Percent Mortality (surface-treated diet) [%] | Percent Growth Inhibition (surface-treated diet) [%] | Percent Mortality [%] | Percent Growth Inhibition [%]
1 | CCOC(=O)Nc1ccc(C[N+]2([O-])CCC(=C(c3ccc(C(F)(F)F)cc3)c3ccc(C(F)(F)F)cc3)CC2)cc1 (stereo not shown) [Compound 101, N-{4-[(4-{bis[4-(trifluoromethyl)phenyl]methylene}piperidyl)methyl]phenyl}ethoxycarboxamide, N-oxide] | 100 | 100 | – | –
2 | C=CCNC(=O)OC(c1ccc(C(F)(F)F)cc1)C1CCN(Cc2ccc(Oc3ccccn3)cc2)CC1 (stereo not shown) [Compound 780] | – | – | 0 | 98
3 | O=C(Nc1cc(F)cc(F)c1)OC(c1ccc(C(F)(F)F)cc1)C1CC[N+]([O-])(Cc2ccc(Oc3ccc(Cl)cn3)cc2)CC1 (stereo not shown) [Compound 756] | – | – | 100 | 100
4 | CCCNC(=O)OC(c1ccc(C(F)(F)F)cc1)C1CCN(Cc2ccc(Oc3ccccn3)cc2)CC1 (stereo not shown) [Compound 775] | – | – | 33 | 100
5 | CCCOc1ccc(CN2CCC(C(OC(=O)Nc3cc(F)cc(F)c3)c3ccc(C(F)(F)F)cc3)CC2)cc1 (stereo not shown) [Compound 491] | 100 | 100 | – | –
6 | C#CCOC(=O)Nc1ccc(C[N+]2([O-])CCC(=C(c3ccc(C(F)(F)F)cc3)c3ccc(C(F)(F)F)cc3)CC2)cc1 (stereo not shown) [Compound 838] | – | – | 100 | 100
7 | Cn1nnc(-c2ccc(CN3CCC(C(NC(=O)Oc4ccccc4Cl)c4ccc(OC(F)(F)F)cc4)CC3)cc2)n1 (stereo not shown) [Compound 347] | 83 | 100 | – | –
8 | CCn1nnc(-c2ccc(CN3CCC(C(OC(=O)Nc4ccc(Cl)c(Cl)c4)c4cc(F)cc(F)c4)CC3)cc2)n1 (stereo not shown) [Compound 591] | 100 | 100 | – | –
9 | CCCOc1ccc(CN2CCC(=C(c3cccc(OC(F)(F)F)c3)c3cccc(OC(F)(F)F)c3)CC2)cc1 [Compound 47] | 0 | 11 | – | –
10 | CCn1nnc(-c2ccc(CN3CCC(C(OC(=O)Nc4ccc(F)c(F)c4)c4ccc(Cl)c(Cl)c4)CC3)cc2)n1 (stereo not shown) [Compound 574] | 100 | 100 | – | –
11 | Clc1ccc(C(=C2CCN(Cc3ccc(Oc4ncccn4)cc3)CC2)c2ccc(Cl)cc2)cc1 [Compound 812] | – | – | 100 | 100
12 | Cn1nnc(-c2ccc(CN3CCC(C(OC(=O)Nc4ccc(Cl)cc4)c4ccc(Cl)cc4)CC3)cc2)n1 (stereo not shown) [Compound 264] | 100 | 100 | – | –
13 | O=C(Oc1ccccc1)OC(c1ccc(C(F)(F)F)cc1)C1CCN(Cc2ccc(Oc3ccccn3)cc2)CC1 (stereo not shown) [Compound 661] | 0 | 91 | – | –
14 | CCON=Cc1ccc(CN2CCC(C(OC(=O)Nc3ccc(Cl)c(C(F)(F)F)c3)c3ccc(C(F)(F)F)cc3)CC2)cc1 (stereo not shown) [Compound 207] | 100 | 100 | – | –
15 | CCCOc1ccc(CN2CCC(C(OC(=O)Nc3ccc(F)cc3)c3ccc(F)cc3)CC2)cc1 (stereo not shown) [Compound 476] | 100 | 100 | – | –
16 | CC(C)OC(=O)Nc1ccc(CN2CCC(=C(c3ccc(Cl)c(F)c3)c3ccc(Cl)c(F)c3)CC2)cc1 [Compound 796] | – | – | 100 | 100
17 | [O-][N+]1(Cc2ccc(Oc3ccccn3)cc2)CCC(=C(c2ccc(Cl)cc2)c2ccc(Cl)cc2)CC1 (stereo not shown) [Compound 841] | – | – | 100 | 100
18 | CC(C)OC(=O)c1ccc(C[N+]2([O-])CCC(C(OC(=O)Nc3ccc(Cl)cc3)c3ccc(C(F)(F)F)cc3)CC2)cc1 (stereo not shown) [Compound 745] | – | – | 100 | 100

Row | SMILES | Percent Mortality (surface-treated diet) [%] | Percent Growth Inhibition (surface-treated diet) [%] | Percent Mortality [%] | Percent Growth Inhibition [%]
19 | O=C(Nc1ccc(Cl)cc1)OC(c1ccc(C(F)(F)F)cc1)C1CCN(Cc2ccc(Oc3ccccc3)cc2)CC1 (stereo not shown) [Compound 545] | 100 | 100 | – | –
20 | O=C(Nc1ccc(OC(F)(F)F)cc1)OC(c1ccc(C(F)(F)F)cc1)C1CCN(Cc2ccc(Oc3ccccn3)cc2)CC1 (stereo not shown) [Compound 249] | 100 | 100 | – | –
21 | CC(C)OC(=O)Nc1ccc(C[N+]2([O-])CCC(=C(c3ccc(Cl)c(F)c3)c3ccc(Cl)c(F)c3)CC2)cc1 (stereo not shown) [Compound 834] | – | – | 100 | 100
22 | O=C(Nc1ccc(Cl)cc1)OC(c1ccc(C(F)(F)F)cc1)C1CC[N+]([O-])(Cc2ccc(Oc3ccccn3)cc2)CC1 (stereo not shown) [Compound 395, N-(4-chlorophenyl)({1-[(4-(2-pyridyloxy)phenyl)methyl](4-(1-oxypiperidyl))}[4-(trifluoromethyl)phenyl]methoxy)carboxamide] | 100 | 100 | – | –
23 | CCn1nnc(-c2ccc(CN3CCC(C(OC(=O)Nc4ccc(Br)cc4)c4ccc(OC(F)(F)F)cc4)CC3)cc2)n1 (stereo not shown) [Compound 270] | 100 | 100 | – | –
24 | c1ccc(C(=C2CCN(Cc3ccc(Oc4ccccn4)cc3)CC2)c2ccccc2)cc1 [Compound 808] | – | – | 0 | 64
25 | CCON=Cc1ccc(CN2CCC(C(OC(=O)Nc3ccc(Cl)cc3)c3ccc(F)cc3)CC2)cc1 (stereo not shown) [Compound 526] | 100 | 100 | – | –
26 | [O-][N+]1(Cc2ccc(Oc3cccc(Cl)n3)cc2)CCC(=C(c2ccc(C(F)(F)F)cc2)c2ccc(C(F)(F)F)cc2)CC1 (stereo not shown) [Compound 108] | 100 | 100 | – | –
27 | CC(C)OC(=O)Nc1ccc(CN2CCC(C(OC(=O)Nc3cccc(F)c3)c3cc(Cl)cc(Cl)c3)CC2)cc1 (stereo not shown) [Compound 509] | 100 | 100 | – | –
28 | O=C(Nc1ccc(Cl)cc1)OC(c1ccc(Cl)cc1Cl)C1CCN(Cc2ccc(Oc3ncccn3)cc2)CC1 (stereo not shown) [Compound 718] | – | – | 100 | 100
29 | FC(F)(F)c1ccc(C(=C2CCN(Cc3ccc(Oc4ncccn4)cc3)CC2)c2ccc(Cl)cc2)cc1 [Compound 816] | – | – | 100 | 100
30 | Cn1nnc(-c2ccc(CN3CCC(C(OC(=O)Nc4ccc(F)cc4)c4ccc(Cl)cc4)CC3)cc2)n1 (stereo not shown) [Compound 274] | 100 | 100 | – | –
31 | CCON=Cc1ccc(CN2CCC(C(OC(=O)Nc3ccc(F)c(F)c3F)c3ccc(C(F)(F)F)cc3)CC2)cc1 (stereo not shown) [Compound 201] | 100 | 100 | – | –
32 | O=C(Nc1ccc(F)cc1)OC(c1ccc(C(F)(F)F)cc1)C1CCN(Cc2ccc(Oc3ccccn3)cc2)CC1 (stereo not shown) [Compound 675] | 100 | 100 | – | –
33 | CCCOc1ccc(CN2CCC(C(OC(=O)Nc3ccc(Cl)cc3)c3ccc(Cl)c(Cl)c3)CC2)cc1 (stereo not shown) [Compound 480] | 100 | 100 | – | –
34 | CCCOc1ccc(CN2CCC(C(OC(=O)Nc3cc(F)cc(F)c3)c3ccc(Cl)c(Cl)c3)CC2)cc1 (stereo not shown) [Compound 482] | 100 | 100 | – | –
35 | N#Cc1ccc(Oc2ccc(C[N+]3([O-])CCC(=C(c4ccc(C(F)(F)F)cc4)c4ccc(C(F)(F)F)cc4)CC3)cc2)nc1 (stereo not shown) [Compound 111] | 100 | 100 | – | –
